Reference: patent publication EP0882029B1, “HETEROCYCLIC DERIVATIVES AS ANTIDIABETIC AND ANTIOBESITY AGENTS” (MERCK & CO., INC., priority 1996, dated 1997)
pKd: −log10 of the molar value.

What was measured:
Human PPARγ2 = target: T1, Human PPARγ2 (Homo sapiens, UniProt P37231); test: [3H]AD-5075 displacement (receptor binding) assay; settings: gst-fusion receptor, 10 nM [3H2]AD-5075, ~16 h at 4 °C
T1 construct: The full length human cDNA for PPARγ2 and PPARδ were subcloned into the PGEX-2T and PGEX-KT, respectively, expression vector; made in house; host or cells: E. coli (pGEX-2T vector, Pharmacia)
T1 sequence (P37231 1-505): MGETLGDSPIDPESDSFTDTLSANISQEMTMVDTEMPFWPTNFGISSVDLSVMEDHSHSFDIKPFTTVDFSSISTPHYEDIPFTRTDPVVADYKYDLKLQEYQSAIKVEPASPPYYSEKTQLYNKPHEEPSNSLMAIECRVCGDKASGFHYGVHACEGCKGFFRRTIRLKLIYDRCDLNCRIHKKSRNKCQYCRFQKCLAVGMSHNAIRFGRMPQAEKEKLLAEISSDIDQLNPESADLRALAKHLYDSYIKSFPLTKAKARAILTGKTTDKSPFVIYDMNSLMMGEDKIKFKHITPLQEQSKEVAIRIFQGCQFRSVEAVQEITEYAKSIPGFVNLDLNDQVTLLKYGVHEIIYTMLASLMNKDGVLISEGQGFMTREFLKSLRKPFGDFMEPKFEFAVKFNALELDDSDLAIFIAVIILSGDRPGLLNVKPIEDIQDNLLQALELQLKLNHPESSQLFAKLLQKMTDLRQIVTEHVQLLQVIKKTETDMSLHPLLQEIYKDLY
Protocol: Human PPARγ2 and PPARδ, independently, were prepared as gst-fusion proteins in E. coli. The full length human cDNA for PPARγ2 and PPARδ were subcloned into the PGEX-2T and PGEX-KT, respectively, expression vector (Pharmacia). E. coli containing the plasmid were grown, induced, and then harvested by centrifugation. The resuspended pellet was broken in a French press and debris was removed by centrifugation at 12,000Xg. Receptors were purified from the supernatant by affinity chromatography on glutathione sepharose. After application to the column, and 1 wash, receptor was eluted with glutathione. Glycerol was added to stabilize the receptor and aliquots were frozen at -80 °C for later use.
For each assay, an aliquot of receptor (1:1000-1:3000 dilution) was incubated in TEGM (10 mM Tris, pH 7.2, 1 mM EDTA, 10% glycerol, 7 µl/100 ml β-mercaptoethanol, 10 mM Na molybdate, 1 mM dithiothreitol, 5 µg/ml aprotinin, 2 µg/ml leupeptin, 2 µg/ml benzamide and 0.5 mM PMSF) containing 5-10% COS-1 cell cytoplasmic lysate and 10 nM labeled thiazolidinedione ([^3H2]AD-5075, 21 Ci/mmole), ± test compound compound, [^3H2]Example 11, 17 Ci/mmole), ± test compound, respectively. Assays were incubated for ∼16 h at 4 °C in a final volume of 300 µl. […] After centrifugation at 3000 rpm for 10 min at 4 °C, 200 µl of the supernatant fraction was counted in a liquid scintillation counter. […]

Human PPARδ = target: T2, Human PPARδ (Homo sapiens, UniProt Q03181); test: [3H2]Example 11 displacement (receptor binding) assay; settings: gst-fusion receptor, [3H2]Example 11, ~16 h at 4 °C
T2 construct: The full length human cDNA for PPARγ2 and PPARδ were subcloned into the PGEX-2T and PGEX-KT, respectively, expression vector; made in house; host or cells: E. coli (pGEX-KT vector, Pharmacia)
T2 sequence (Q03181 1-441): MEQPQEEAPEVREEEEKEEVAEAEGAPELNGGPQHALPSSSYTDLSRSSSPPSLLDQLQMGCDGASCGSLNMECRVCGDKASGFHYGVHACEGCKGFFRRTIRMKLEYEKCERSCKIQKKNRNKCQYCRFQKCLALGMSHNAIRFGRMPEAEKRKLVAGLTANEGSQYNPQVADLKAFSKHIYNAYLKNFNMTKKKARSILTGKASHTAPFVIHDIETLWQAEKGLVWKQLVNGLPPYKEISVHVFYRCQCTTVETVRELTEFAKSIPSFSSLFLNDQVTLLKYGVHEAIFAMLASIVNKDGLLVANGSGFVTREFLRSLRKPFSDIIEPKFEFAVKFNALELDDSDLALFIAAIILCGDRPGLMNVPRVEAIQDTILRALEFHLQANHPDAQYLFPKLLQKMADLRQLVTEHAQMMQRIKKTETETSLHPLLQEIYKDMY
Protocol: The hPPARδ binding assay comprises the steps of: • (a) preparing multiple test samples by incubating separate aliquots of the receptor hPPARδ with a test compound in TEGM containing 5-10% COS-1 cell cytoplasmic lysate and 2.5 nM labeled ([^3H2]Compound D, 17 Ci/mmole) for a minimum of 12 hours, and preferably for about 16 hours, at 4 °C, wherein the concentration of the test compound in each test sample is different, and preparing a control sample by incubating a further separate aliquot of the receptor hPPARδ under the same conditions but without the test compound; then • (b) removing unbound ligand by adding dextran/gelatin-coated charcoal to each sample while maintaining the samples at 4 °C and allowing at least 10 minutes to pass, then • (c) subjecting each of the test samples and the control sample from step (b) to centrifugation at 4 °C until the charcoal is pelleted; then • (d) counting a portion of the supernatant fraction of each of the test samples and the control sample from step (c) in a liquid scintillation counter and analyzing the results to determine the IC50 of the test compound.
Human PPARγ2 and PPARδ, independently, were prepared as gst-fusion proteins in E. coli. The full length human cDNA for PPARγ2 and PPARδ were subcloned into the PGEX-2T and PGEX-KT, respectively, expression vector (Pharmacia). […]

| SMILES | pKd (Human PPARγ2) | pKd (Human PPARδ) |
| --- | --- | --- |
| Cc1oc(-c2ccccc2)nc1C(O)COc1ccc(CC2SC(=O)NC2=O)cc1 (centres unmarked) [AD-5075] | 9.00 | – |
| CCCc1c(OCCC[S+]([O-])c2ccc(CC(=O)OC)cc2Cl)ccc2c(CC)noc12 (centres unmarked) [Example 11, Methyl 3-chloro-4-(3-(3-ethyl-7-propyl-6-benz-[4,5]-isoxazoloxy)-propylthio)phenylacetate S-oxide] | – | 9.00 |
